Experimental data published in article PMC11011246 (Cell, 2024).

Tests used:
[1] = Pharmacokinetics of HRX215 in mice; assay type: in vivo, C57BL/6 wildtype mice; details: 30 mg/kg p.o.
[2] = system: C57BL/6 WT mice; experiment: 4-week treatment/toxicity study in wildtype mice; assay type: in vivo, mouse; details: 10 mg/kg, vs vehicle
[3] = system: C57BL/6 WT mice; experiment: Short-term CCl4 liver damage model; assay type: in vivo, mouse; details: 0.4, 2, 10 mg/kg p.o., 48 h after CCl4, vs vehicle
[4] = system: C57BL/6 WT mice; experiment: Short-term GAN-NASH model; assay type: in vivo, mouse; details: 10 mg/kg daily, 12 weeks, vs vehicle
[5] = system: C57BL/6 WT mice; experiment: Long-term GAN-NASH HCC model; assay type: in vivo, mouse
[6] = system: NrasG12V Cdkn2aARF-/- HCC cells; experiment: HCC cell proliferation and trypan blue cell death; assay type: cell-based, murine; details: HRX215 10 μM vs DMSO, up to 72 h
[7] = system: NrasG12V Trp53-/- HCC cells; experiment: HCC cell proliferation and trypan blue cell death; assay type: cell-based, murine; details: HRX215 10 μM vs DMSO, up to 72 h
[8] = system: pigs; experiment: 85% hepatectomy; assay type: in vivo, pig
[9] = IND-enabling GLP safety pharmacology; assay type: in vivo, rats, dogs; details: GLP studies
[10] = 4-week GLP toxicity study; details: both, Wistar Han, rat, in vivo, po
[11] = 4-week GLP toxicity study; details: both, beagle, dog, in vivo, po
[12] = First-in-human phase I trial, pharmacokinetics; assay type: in vivo; details: for Tmax: male, plasma, oral, 50 mg, 50 mg single dose
[13] = system: healthy male volunteers; experiment: First-in-human phase I trial, safety and tolerability; assay type: in vivo
[14] = system: C57BL/6 WT mice; experiment: Partial hepatectomy in wildtype mice; details: 48 h after partial hepatectomy
[15] = system: C57BL/6 WT mice; experiment: CCl4 liver-damage; details: 10 mg/kg p.o., CCl4 3 weeks, 48 h after PH

## CCCS(=O)(=O)Nc1c(F)ccc(C(=O)c2n[nH]c3ncc(-c4ccncc4)cc23)c1F [HRX215]
[1]
  t(1/2), elimination half-life: 3.4 to 3.9 h
[2]; 4 weeks
  complete blood counts: No significant changes were detected
[2]
  untargeted metabolomics of plasma and liver: no safety relevant changes were detected
[3]
  hepatocyte death (TUNEL): significantly reduced hepatocyte death
[4]
  numbers of senescent cells in NASH livers: found no differences
[5]; 10 mg/kg daily, 12 weeks
  hepatic inflammation and hepatocyte ballooning: no reduction of hepatic inflammation and hepatocyte ballooning
  hepatocyte proliferation (Ki67): slightly increased hepatocyte proliferation
  liver fibrosis: found reduced in HRX215 treated livers, but results missed statistical significance
  overall hepatic lipid content: significant reduction of the overall hepatic lipid content
  tumor size: tendency toward a reduction of tumor size
[5]; 10 mg/kg daily, 12 weeks, vs baseline and vehicle
  number of tumor nodules per liver: did not result in a higher number of tumor nodules per liver
[5]; 10 mg/kg daily, 12 weeks, vs vehicle
  numbers of dysplastic premalignant lesions: did not reveal significant differences
[5]; non-tumor bearing liver parts
  NAS score development: more animals with an improved NAS score and less animals with a worsened NAS score
[6]
  cell proliferation: significantly reduced cell proliferation
[7]
  cell proliferation: significantly reduced cell proliferation
[8]; pigs, 85% hepatectomy
  aspartate aminotransferase: only transiently increased after surgery
  bilirubin plasma levels: only a transient rise with a subsequent drop
  intracranial pressure (ICP) after surgery: did not show an increase in ICP values
  plasma ammonia: prevented an increase of plasma ammonium
[8]; post-surgery treatment group (start 12 h after surgery)
  animals with normal behavior that survived: 5 out of 6
[8]; pre-surgery treatment group (start 12 h before surgery)
  animals with normal behavior that survived: 4 out of 6
[9]
  effect on the cardiovascular, neurological, or respiratory system: absence of any effect
[10]
  NOAEL at 4 weeks: 300 mg/kg/day
[11]
  NOAEL at 4 weeks: 250 mg/kg/day
[12]; ascending doses
  exposure (Cmax and AUC) versus dose: increased proportionally with ascending doses
[12]; fasting
  Tmax: 1.2 h
[12]; fed
  Tmax: 3.9 h
[13]; HRX215 groups, n = 36
  mild to moderate adverse effects, percentage: 36.1%
  number of mild to moderate adverse effects (subjects/group): 13/36
[13]; single and multiple doses 5-500 mg
  severe or serious adverse events: no severe or serious adverse events were reported
[13]; vs placebo
  complete blood counts: no significant differences
[14]; 0.4 mg/kg p.o.
  proliferating hepatocytes (Ki67): 15.38%
[14]; 2 mg/kg p.o.
  proliferating hepatocytes (Ki67): 15.15%
[14]; 10 mg/kg p.o.
  proliferating hepatocytes (Ki67): 26.3%
[15]
  hepatocyte proliferation upon partial hepatectomy in fibrotic livers: enhance hepatocyte proliferation
